Source: US20250268898A1, “METHODS OF TREATING SYNOVIAL SARCOMA PATHOGENESIS BY SUMO2 INHIBITION” (Sanford Burnham Prebys Medical Discovery Institute, priority 2024, published 2025)
“Also recorded” adds a separate entry of the source.

How the values were obtained:
SS18-SSX1 protein = experiment: Western blot for SS18-SSX fusion protein levels; type: cell-based, human
Experimental: shRNAs targeting SUMO2 were cloned into a tetracycline-inducible plasmid and expressed in HS-SYII cells. Small hairpin RNAs (shRNAs) for SUMO2 were cloned into the all-in-one-Tet vector and packaged into lentivirus using pMD and pPax2. A cell suspension containing about 300,000 HS-SY-II and SYO1 cells were seeded into six-well culture plates overnight for about 12-14 hours. Transfections were performed with Lipofectamine 2000 reagent. At about 48 hours after transfection, media was changed and puromycin selected for about 2 days. After selection, cells were subjected to a previously determined amount of doxycycline, about 4.5 μg/ml, for about 48 hours. Cells were harvested for qPCR quantification and western blot analysis.
The effect of Compound 1 was compared to the effect of SUMO2 knockdown by shRNA.

SS18-SSX fusion = experiment: Spike-in normalized CUT&RUN of SS18-SSX chromatin occupancy; type: cell-based, human
Experimental: Subsequent studies sought to determine the mechanism behind Compound 1 treatment and the observed attenuation of SS18-SSX expression activity. Initial studies utilizing Cleavage Under Targets & Release Using Nuclease (CUT&RUN) focused on determining whether Compound 1 affects the chromatin occupancy of the SS18-SSX fusion protein. […] Since increased H2AK119ub deposition has been linked to the pathogenic activity of the SS18-SSX fusions, H2AK119 ubiquitination was assessed in Compound 1-treated cells.

H2AK119ub [1] = experiment: H2AK119ub immunoblotting; type: cell-based, human
Aska-SS cells = experiment: CellTiter-Glo viability, 2D and 3D cultures; type: cell-based; conditions: over 2, 3, and 4 days
Experimental: (§1) To investigate whether the reduction of proliferation by Compound 1 was due to apoptosis and necrosis in synovial sarcoma cell lines, flow cytometric analyses were performed with cells treated with Compound 1 and untreated cells stained with Annexin V-FITC apoptosis marker, as well as Propidium Iodide necrosis marker for cells in media containing Compound 1 and media only containing DMSO. The proliferation assay was performed using Cell Titer Glo Luminescent Cell Viability Assay (Promega). Cell numbers were optimized for 384-well plate for each cell line. SUMO2 inhibitors including Compound 1 were dissolved in DMSO and echo dotted onto a 384-well plate in varying concentrations, with the final concentration of DMSO at about 0.08% in each well. About 25 μL of cell suspension, a concentration of about 50,000 cells/mL were seeded in each well of a 384-well plate. […] Luminescence was recorded with a plate reader (BMG FLUOStar). The EC50 values were calculated by Graphpad Prism software. Apoptosis was quantified by flow cytometry using Annexin V-FITC kit from BD Biosciences. […] The samples were then analyzed by flow cytometry using Fortessa along with FlowJo analysis software. Cell lines analyzed were HS-SY-II (left) and SYO1 (right) (FIG. 3G). […]

SYO1 cells [2] = experiment: CellTiter-Glo viability, 2D and 3D cultures; type: cell-based, human; conditions: over 2, 3, and 4 days
Experimental: as §1

12273/99 cells = experiment: Colony-forming assay (crystal violet); type: cell-based, human; conditions: Compound 1 titration series
SYO1 flank tumors = experiment: Flank tumor xenograft in nude mice; type: in vivo
Experimental: (§2) To determine the antitumor activity of Compound 1 in vivo, either Aska-SS cells (harboring the SS18-SSX1 fusion) or SYO1 cells (harboring the SS18-SSX2 fusion) were injected into the flanks of nude mice. When tumors became palpable, mice were treated with 25 mg/kg of Compound 1 or vehicle.
(§3) Flank tumors were harvested, sectioned, and stained with hematoxylin and eosin and analyzed with IHC for tumoricidal markers.

Aska-SS flank tumors = experiment: Flank tumor xenograft in nude mice; type: in vivo
Experimental: as §2, §3

SYO1 cells [3] = experiment: Colony-forming assay (crystal violet); type: cell-based, human; conditions: Compound 1 titration series
Experimental: Further testing of Compound 1 was performed on 2D and 3D cultures for SYO1 and Aska-SS cell lines to determine whether these culture conditions resist Compound 1 treatment.

H2AK119ub [4] = experiment: ChIP-sequencing of H2AK119ub; type: cell-based, human
[5] = molecular target: T1, Sumo-Activating Enzyme 1 (SAE1) or Sumo-Activating Enzyme 2 (SAE2) (Homo sapiens, UniProt Q9UBE0+Q9UBT2); experiment: Interruption of the SUMO cycle (SAE inhibition); conditions: E1 Ligase Activation step
T1 sequence (Q9UBE0 1-346): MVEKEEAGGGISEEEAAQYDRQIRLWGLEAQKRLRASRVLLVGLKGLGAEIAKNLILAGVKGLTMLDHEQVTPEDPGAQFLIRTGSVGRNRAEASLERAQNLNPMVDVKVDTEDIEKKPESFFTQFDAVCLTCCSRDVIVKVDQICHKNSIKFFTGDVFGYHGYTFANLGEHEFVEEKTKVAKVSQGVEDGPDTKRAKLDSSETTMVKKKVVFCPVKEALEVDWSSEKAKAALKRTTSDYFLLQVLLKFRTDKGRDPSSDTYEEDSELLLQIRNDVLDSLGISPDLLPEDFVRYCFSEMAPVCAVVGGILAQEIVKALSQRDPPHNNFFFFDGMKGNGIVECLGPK
T1 sequence (Q9UBT2 1-640): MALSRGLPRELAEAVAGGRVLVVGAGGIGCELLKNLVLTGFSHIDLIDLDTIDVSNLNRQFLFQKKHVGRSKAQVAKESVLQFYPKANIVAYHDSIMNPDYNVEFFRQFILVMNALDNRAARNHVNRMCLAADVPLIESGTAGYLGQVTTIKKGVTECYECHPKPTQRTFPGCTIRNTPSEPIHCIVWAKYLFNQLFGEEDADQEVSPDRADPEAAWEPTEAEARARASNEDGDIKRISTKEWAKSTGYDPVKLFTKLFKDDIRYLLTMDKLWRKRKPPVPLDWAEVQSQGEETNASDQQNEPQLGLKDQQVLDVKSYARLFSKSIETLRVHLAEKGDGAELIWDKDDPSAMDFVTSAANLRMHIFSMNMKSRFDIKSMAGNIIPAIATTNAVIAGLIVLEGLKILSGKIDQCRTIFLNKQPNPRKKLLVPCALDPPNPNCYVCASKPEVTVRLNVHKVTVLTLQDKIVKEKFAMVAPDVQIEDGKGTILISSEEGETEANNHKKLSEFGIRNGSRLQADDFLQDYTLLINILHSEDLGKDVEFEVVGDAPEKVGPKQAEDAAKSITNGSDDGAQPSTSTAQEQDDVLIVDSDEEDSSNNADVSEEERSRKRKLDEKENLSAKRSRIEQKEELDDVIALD

HS-SY-II and SYO1 cells = experiment: Total RNA sequencing, Compound 1 vs DMSO; type: cell-based, human
Experimental: To comprehensively interrogate the transcriptomic changes occurring in synovial sarcoma cells, HS-SY-II and SYO1 cells were cultured in media containing DMSO and media containing Compound 1 and subjected to total RNA sequencing. HS-SY-II and SYO1 cells were contacted with either Compound 1 at concentrations of between about 25 nM and about 100 nM, or DMSO for 48 hours. The cell suspensions were pelleted, and RNA was extracted with varying concentrations. TRIzol Reagent was used to extract total RNA from SYO1, and HS-SY-II cell pellets, and strands were synthesized using Protoscript II (NEB) with poly A selection. qPCR was performed using TaqMan Gene Expression Master Mix and FAM probes for SUMO2, HPRT, and GAPDH. Paired-end (2×100 bp) sequencing was performed on the NovaSeq 6000 Sequencing System. Data Processing and QC was completed using FastQC and QC summarization was done by MultiQC. Mapping to human genome hg38 v84 was done using STAR sequence aligner, and expression was estimated using RSEM. DESeq2 was used for differential expression analysis, and IPA algorithm was used in evaluation of upstream pathway regulators.
The RNA-seq reads were analyzed for each sample to the human reference genome GRCh38 using STAR aligner. Expression estimation was conducted using RSEM followed by differential expression calling using DESeq2. For target genes of interest in both HS-SY-II and SYO1, a total of 960 differentially expressed target genes of interest (DEGs) were analyzed using […] (FIG. 4A).
Upregulation of target genes of interest activated by the chimeric SS18-SSX fusion protein in DMSO media and in media containing Compound 1 were mapped with size and […] (FDR) quantified, based on […] (NES) values (FIG. 4D). Expression of various target genes of interest, upregulation, and downregulation by SS18-SSX fusion genomes, were measured in contact with varying concentrations of Compound 1 (FIG. 4E). Heat maps were created mapping the various target genes of interest cultured in media containing only DMSO, compared to media containing Compound 1, for multiple samples (FIG. 4F-4G). Enrichment scores were calculated using gene set enrichment analysis for HS-SY-II cells in contact with DMSO and varying concentrations of Compound 1 for target genes of interest (FIG. 4H). Additional experiments comparing gene expression differences due to DMSO or Compound 1 on SYO-II and HS-SY-II cells were performed. Not only were SS18-SSX-regulated genes affected by Compound 1 treatment, but other genes also impacted included the HOX genes: HOXC6, HOXA10 as well as SRSF1 and TYMS. (FIG. 4I).

HS-SY-II cells = experiment: Colony-forming assay (crystal violet); type: cell-based, human; conditions: Compound 1 titration series
[6] = 25 mg/kg, 3 intraperitoneal injections a week for 5 weeks, vs vehicle
[7] = Ki-67 staining of tumor sections, vs vehicle-treated tumors
[8] = harvested flank tumors, vs vehicle-treated tumors

Cc1sc(C(=O)c2cncnc2N[C@@H]2C[C@H](COS(N)(=O)=O)[C@@H](O)C2)cc1[C@@H]1NCCc2ccc(Cl)cc21 [Compound 1]
levels of SS18-SSX1 protein (SS18-SSX1 protein; HS-SY-II cell line): reduction in the levels
levels of SS18-SSX1 fusion (SS18-SSX1 protein; SYO1 cell lines): reduction in the levels
SS18-SSX fusion occupancy at SS18-SSX-repressed target GADD45B (SS18-SSX fusion): diminished SS18-SSX fusion occupancy; also recorded: decrease of SS18-SSX occupation of this gene
SS18-SSX occupancy at SS18-SSX-activated targets HOXA10 and SOX8 (SS18-SSX fusion): lost SS18-SSX occupancy; also recorded: decrease of SS18-SSX occupation
SS18-SSX2 fusion genomic occupancy (SS18-SSX fusion; Compound 1-treated compared to vehicle-treated arms): substantial decrease
reduction in genome-wide chromatin binding signal of the SS18-SSX fusion (FRiP) (SS18-SSX fusion; SYO1 cells, compared to DMSO treated cells): 1.87 fold
fusion-binding signal at synovial sarcoma target genes (meta-analysis) (SS18-SSX fusion; maximum signal centered around the transcription start site): reduction in the fusion binding
H2AK119ub by immunoblotting (H2AK119ub [1]; 1273/99 cell line): marked reduction
H2AK119ub by immunoblotting (H2AK119ub [1]; Aska cell line): marked reduction
H2AK119ub by immunoblotting (H2AK119ub [1]; HS-SY-II cell line): marked reduction
H2AK119ub by immunoblotting (H2AK119ub [1]; SYO1 cell line): marked reduction
viability as measured by CellTiter-Glo (Aska-SS cells): progressive and marked decrease in viability; also recorded: affected in a Compound 1 concentration-dependent manner
viability as measured by CellTiter-Glo (SYO1 cells [2]): progressive and marked decrease in viability; also recorded: affected in a Compound 1 concentration-dependent manner
colony formation (12273/99 cells): dramatic and dose-dependent reduction in colony formation
tumor growth (SYO1 flank tumors; [6]): reduction of tumor growth
tumor volumes (SYO1 flank tumors; [6]): significantly reduced
tumor weights (SYO1 flank tumors; [6]): significantly reduced
decrease in Ki67 positivity (SYO1 flank tumors; [7]): ~60%
number of cells per unit area (tumor cellularity, hematoxylin and eosin) (SYO1 flank tumors; [8]): marked reduction
tumor growth (Aska-SS flank tumors; [6]): reduction of tumor growth
tumor volumes (Aska-SS flank tumors; [6]): significantly reduced
tumor weights (Aska-SS flank tumors; [6]): significantly reduced
decrease in Ki67 positivity (Aska-SS flank tumors; [7]): ~60%
number of cells per unit area (tumor cellularity, hematoxylin and eosin) (Aska-SS flank tumors; [8]): marked reduction
colony formation (SYO1 cells [3]): dramatic and dose-dependent reduction in colony formation
H2AK119ub at GADD45B (H2AK119ub [4]): reduced H2AK119ub
reduction of genome-wide H2AK119ub levels (FRiP) (H2AK119ub [4]; SYO1 cells, versus DMSO-treated): 1.53 fold
H2AK119ub genome-wide (H2AK119ub [4]; compared to DMSO-treated cells): substantial reduction
interruption of the SUMO cycle [5]: interrupt the SUMO cycle at the E1 Ligase Activation step
expression of GADD45B (HS-SY-II and SYO1 cells): increased expression (de-repression); also recorded: increase in its expression
expression of HOXA10 and SOX8 (HS-SY-II and SYO1 cells): reduced expression
expression of key cancer-associated genes upregulated by the SySa fusion (CDX2, HOXA10, SUZ12, TYMS, AURKB, HOXC10, SMC2) (HS-SY-II and SYO1 cells; HS-SY-II and SYO1, vs DMSO): downregulated
expression of HOXC6, HOXA10, SRSF1 and TYMS (HS-SY-II and SYO1 cells; SYO1 and HS-SY-II cells, vs DMSO): impacted
expression of SS18-SSX-regulated genes (HS-SY-II and SYO1 cells; SYO-II and HS-SY-II cells, vs DMSO): affected
colony formation (HS-SY-II cells): dramatic and dose-dependent reduction in colony formation
